This note sets out measurements from US20250145606A1 (Arcus Biosciences, Inc., priority 2023, published 2025).

In experiment [1] the target is PDGFRα (Homo sapiens (Human), UniProt P16234). In words: Inhibition of PDGFRα kinase activity (HTRF KinEASE-TK). The note with it: biochemical, HTRF KinEASE-TK. Put shortly: (§1)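 Phosphorylation of biotinylated TK peptide read by HTRF (665/620 nm ratio) after 120 min at rt, following 1 h enzyme–compound preincubation. ATP (2× mix): 20 μM CSF1R, 16 μM c-Kit, 40 μM PDGFRβ, 1 μM PDGFRα; MgCl2 10 mM except c-Kit 5 mM. 22-point 1:2 titration; four-parameter IC50.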
Background: Time-resolved FRET reads energy transfer from a long-lived donor to a nearby acceptor.

Experiment [2] addresses CSF1R (Homo sapiens (Human), UniProt P07333). Briefly: Inhibition of CSF1R kinase activity (HTRF KinEASE-TK). The note with it: biochemical, HTRF KinEASE-TK. The method, boiled down: as §1
Experiment [3] addresses PDGFRβ (Homo sapiens (Human), UniProt P09619). Briefly: Inhibition of PDGFRβ kinase activity (HTRF KinEASE-TK). The note with it: biochemical, HTRF KinEASE-TK. Put shortly:
as §1

Experiment [4] has as its target c-Kit (Homo sapiens (Human), UniProt P10721). Briefly: Inhibition of c-Kit kinase activity (HTRF KinEASE-TK). The format is biochemical. Particulars: biochemical, HTRF KinEASE-TK. Put shortly:
as §1

In experiment [5] the test system is Phospho-KIT (Y703) in M07e cells. In words: Phospho-KIT (Y703) cellular assay in M07e cells. In kind it is cell-based. The note with it: M-07e; Phospho-KIT (Y703), M07e cells; read-out: M07e Cell IC50. The method, boiled down:
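Serum-starved M07e cells preincubated 50 min at 37° C with 11-point half-log compound titration, then stimulated 10 min with SCF at 90.9 ng/mL final. Fixed, permeabilized cells stained for phospho-KIT Y703 and read by flow cytometry (live-gated geometric mean); IC50 by 4-parameter fit normalized to DMSO and positive control.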

CSF1R, sequence (P07333 20-972): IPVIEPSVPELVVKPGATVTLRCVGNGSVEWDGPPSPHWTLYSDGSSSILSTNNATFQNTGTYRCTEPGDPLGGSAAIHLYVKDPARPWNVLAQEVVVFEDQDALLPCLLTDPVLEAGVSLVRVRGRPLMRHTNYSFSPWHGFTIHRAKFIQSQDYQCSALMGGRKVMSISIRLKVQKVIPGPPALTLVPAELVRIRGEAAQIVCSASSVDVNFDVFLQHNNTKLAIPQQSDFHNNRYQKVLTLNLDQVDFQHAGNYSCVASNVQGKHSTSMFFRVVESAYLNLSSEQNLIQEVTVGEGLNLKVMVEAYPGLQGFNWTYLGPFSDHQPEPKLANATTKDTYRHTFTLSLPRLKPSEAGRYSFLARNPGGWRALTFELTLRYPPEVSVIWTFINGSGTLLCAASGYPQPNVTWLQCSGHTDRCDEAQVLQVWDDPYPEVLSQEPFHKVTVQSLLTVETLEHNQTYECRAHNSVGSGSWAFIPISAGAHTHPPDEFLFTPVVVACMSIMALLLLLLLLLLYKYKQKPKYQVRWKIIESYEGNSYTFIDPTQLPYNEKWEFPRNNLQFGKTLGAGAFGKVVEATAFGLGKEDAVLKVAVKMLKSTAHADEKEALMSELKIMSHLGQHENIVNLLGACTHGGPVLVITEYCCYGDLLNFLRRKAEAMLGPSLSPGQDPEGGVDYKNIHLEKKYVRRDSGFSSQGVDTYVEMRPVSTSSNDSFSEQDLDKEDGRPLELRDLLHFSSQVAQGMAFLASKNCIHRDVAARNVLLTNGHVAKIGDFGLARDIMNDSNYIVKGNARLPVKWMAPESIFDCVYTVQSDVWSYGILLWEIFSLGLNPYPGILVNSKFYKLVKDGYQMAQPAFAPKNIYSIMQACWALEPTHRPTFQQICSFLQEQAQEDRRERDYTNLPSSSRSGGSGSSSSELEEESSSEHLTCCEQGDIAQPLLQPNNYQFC
PDGFRβ, sequence (P09619 33-1106): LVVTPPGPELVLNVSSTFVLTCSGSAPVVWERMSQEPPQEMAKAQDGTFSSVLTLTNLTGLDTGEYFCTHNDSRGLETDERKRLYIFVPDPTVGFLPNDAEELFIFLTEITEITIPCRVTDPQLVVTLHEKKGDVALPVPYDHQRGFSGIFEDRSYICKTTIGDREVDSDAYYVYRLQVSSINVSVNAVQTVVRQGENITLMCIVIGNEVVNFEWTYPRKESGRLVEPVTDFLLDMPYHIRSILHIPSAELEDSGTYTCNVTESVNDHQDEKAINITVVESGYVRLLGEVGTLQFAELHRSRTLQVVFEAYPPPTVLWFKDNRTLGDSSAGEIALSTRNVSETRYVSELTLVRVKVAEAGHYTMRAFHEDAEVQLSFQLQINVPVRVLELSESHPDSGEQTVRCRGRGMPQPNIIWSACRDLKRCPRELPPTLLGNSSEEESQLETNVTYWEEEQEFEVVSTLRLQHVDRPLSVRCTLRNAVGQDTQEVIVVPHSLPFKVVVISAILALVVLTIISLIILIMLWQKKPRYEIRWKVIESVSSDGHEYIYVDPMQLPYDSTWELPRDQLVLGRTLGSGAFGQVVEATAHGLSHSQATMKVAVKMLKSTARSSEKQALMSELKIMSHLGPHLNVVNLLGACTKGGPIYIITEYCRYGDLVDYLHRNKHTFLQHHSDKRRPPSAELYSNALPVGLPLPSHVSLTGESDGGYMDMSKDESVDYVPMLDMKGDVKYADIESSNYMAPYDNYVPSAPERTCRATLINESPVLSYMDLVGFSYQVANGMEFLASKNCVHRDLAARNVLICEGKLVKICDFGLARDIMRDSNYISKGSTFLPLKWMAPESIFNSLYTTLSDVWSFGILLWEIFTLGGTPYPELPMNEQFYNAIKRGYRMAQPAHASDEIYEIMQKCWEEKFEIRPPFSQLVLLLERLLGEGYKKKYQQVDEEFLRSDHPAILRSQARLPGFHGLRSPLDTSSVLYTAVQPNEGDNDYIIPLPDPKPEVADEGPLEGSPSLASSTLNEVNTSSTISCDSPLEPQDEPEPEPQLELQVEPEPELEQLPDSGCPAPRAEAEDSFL
c-Kit, sequence (P10721 26-976): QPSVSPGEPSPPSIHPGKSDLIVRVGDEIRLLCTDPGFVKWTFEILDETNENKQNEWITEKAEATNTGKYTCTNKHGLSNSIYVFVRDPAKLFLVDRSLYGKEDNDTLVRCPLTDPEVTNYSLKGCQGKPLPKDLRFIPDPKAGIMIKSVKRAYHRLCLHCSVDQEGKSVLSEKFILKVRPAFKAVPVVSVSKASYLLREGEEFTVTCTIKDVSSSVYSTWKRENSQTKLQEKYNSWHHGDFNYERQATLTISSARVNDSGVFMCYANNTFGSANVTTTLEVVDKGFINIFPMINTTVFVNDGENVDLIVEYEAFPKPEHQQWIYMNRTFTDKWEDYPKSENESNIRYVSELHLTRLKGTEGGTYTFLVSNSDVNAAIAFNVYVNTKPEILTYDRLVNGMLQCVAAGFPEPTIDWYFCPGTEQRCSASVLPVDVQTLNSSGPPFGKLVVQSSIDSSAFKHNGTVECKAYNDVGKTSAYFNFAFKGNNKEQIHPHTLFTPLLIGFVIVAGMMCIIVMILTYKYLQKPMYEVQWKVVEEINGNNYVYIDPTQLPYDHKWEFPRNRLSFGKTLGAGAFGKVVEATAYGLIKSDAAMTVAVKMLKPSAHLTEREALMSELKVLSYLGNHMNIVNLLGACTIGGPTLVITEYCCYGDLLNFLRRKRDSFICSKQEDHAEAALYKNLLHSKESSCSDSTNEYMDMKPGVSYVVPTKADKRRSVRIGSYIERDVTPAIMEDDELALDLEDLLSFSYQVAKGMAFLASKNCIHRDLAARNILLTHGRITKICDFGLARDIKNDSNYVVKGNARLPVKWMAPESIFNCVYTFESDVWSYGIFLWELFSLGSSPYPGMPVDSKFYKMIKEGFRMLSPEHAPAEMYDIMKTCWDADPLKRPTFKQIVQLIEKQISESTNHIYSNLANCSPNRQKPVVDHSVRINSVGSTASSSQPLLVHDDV
PDGFRα, sequence (P16234 24-1089): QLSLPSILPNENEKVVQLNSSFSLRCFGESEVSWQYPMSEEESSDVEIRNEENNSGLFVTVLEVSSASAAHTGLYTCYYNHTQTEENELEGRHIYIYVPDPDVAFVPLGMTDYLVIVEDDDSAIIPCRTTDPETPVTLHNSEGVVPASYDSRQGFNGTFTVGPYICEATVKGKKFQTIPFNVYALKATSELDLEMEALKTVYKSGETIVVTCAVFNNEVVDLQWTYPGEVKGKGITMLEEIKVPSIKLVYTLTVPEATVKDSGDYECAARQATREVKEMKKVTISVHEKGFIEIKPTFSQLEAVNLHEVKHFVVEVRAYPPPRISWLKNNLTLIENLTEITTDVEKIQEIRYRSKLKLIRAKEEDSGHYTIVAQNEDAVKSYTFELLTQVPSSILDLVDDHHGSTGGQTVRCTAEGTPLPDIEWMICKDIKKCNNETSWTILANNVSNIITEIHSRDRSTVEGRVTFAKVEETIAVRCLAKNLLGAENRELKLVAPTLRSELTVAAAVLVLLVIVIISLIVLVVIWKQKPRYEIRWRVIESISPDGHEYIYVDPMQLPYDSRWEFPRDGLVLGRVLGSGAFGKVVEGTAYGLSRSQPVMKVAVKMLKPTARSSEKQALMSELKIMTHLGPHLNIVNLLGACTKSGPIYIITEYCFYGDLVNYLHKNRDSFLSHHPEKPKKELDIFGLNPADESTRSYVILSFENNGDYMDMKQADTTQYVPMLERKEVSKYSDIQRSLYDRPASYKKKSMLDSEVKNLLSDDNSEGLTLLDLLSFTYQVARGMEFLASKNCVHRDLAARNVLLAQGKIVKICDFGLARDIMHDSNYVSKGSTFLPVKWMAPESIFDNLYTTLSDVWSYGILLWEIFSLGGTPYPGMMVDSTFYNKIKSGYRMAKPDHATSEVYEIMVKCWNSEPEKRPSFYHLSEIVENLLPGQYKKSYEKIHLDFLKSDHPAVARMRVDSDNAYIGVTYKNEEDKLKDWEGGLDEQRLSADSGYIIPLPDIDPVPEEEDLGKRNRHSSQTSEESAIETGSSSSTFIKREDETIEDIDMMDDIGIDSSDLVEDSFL

One may read the IC50 as the concentration needed to halve the response being measured. In the case of `Cc1ncc(C(=O)Nc2cc(C(=O)Nc3ccnc(C(F)(F)F)c3)c(F)cc2C)s1` [Example 25, N-[4-Fluoro-2-methyl-5-[[2-(trifluoromethyl)pyridin-4-yl]carbamoyl]phenyl]-2-methyl-1,3-thiazole-5-carboxamide], the IC50 was above 1000 nM in experiment [1]; above 1000 nM in experiment [2]; 100 to 1000 nM in experiment [3]; below 100 nM in experiment [4]; below 100 nM in experiment [5].

As to `Cc1ncc(C(=O)Nc2cc(C(=O)Nc3cnc(OC4CC(F)(F)C4)cn3)c(F)cc2C)s1` [Example 32, N-[5-[[5-(3,3-difluorocyclobutyl)oxypyrazin-2-yl]carbamoyl]-4-fluoro-2-methylphenyl]-2-methyl-1,3-thiazole-5-carboxamide], the IC50 in experiment [1] was above 1000 nM; in experiment [2], above 1000 nM; in experiment [3], above 1000 nM; in experiment [4], below 100 nM; in experiment [5], below 100 nM.

Consider `Cc1ncc(C(=O)Nc2cc(C(=O)Nc3ccc(OCC(F)F)cn3)c(F)cc2C)s1` [Example 36, N-[5-[[5-(2,2-difluoroethoxy)pyridin-2-yl]carbamoyl]-4-fluoro-2-methylphenyl]-2-methyl-1,3-thiazole-5-carboxamide], for which the IC50 was above 1000 nM in experiment [1]; above 1000 nM in experiment [2]; above 1000 nM in experiment [3]; below 100 nM in experiment [4]; below 100 nM in experiment [5].

`Cc1ncc(C(=O)Nc2cc(C(=O)Nc3ccc(OC(F)(F)F)cn3)c(F)cc2C)s1` [Example 39, N-[4-fluoro-2-methyl-5-[[5-(trifluoromethoxy)pyridin-2-yl]carbamoyl]phenyl]-2-methyl-1,3-thiazole-5-carboxamide]: the IC50 in experiment [1] was above 1000 nM; in experiment [2] it was above 1000 nM; in experiment [3], above 1000 nM; in experiment [4] it was below 100 nM; in experiment [5], below 100 nM.

With `Cc1ncc(C(=O)Nc2cc(C(=O)Nc3ccc(OC(C)C)cn3)c(F)cc2Cl)s1` [Example 48, N-[2-chloro-4-fluoro-5-[(5-propan-2-yloxypyridin-2-yl)carbamoyl]phenyl]-2-methyl-1,3-thiazole-5-carboxamide], the IC50 is above 1000 nM in experiment [1]; above 1000 nM in experiment [2]; above 1000 nM in experiment [3]; below 100 nM in experiment [4]; below 100 nM in experiment [5].

As for `Cc1ncc(C(=O)Nc2cc(C(=O)Nc3ccc(OC4CC4)cn3)c(F)cc2Cl)s1` [Example 49, N-[2-chloro-5-[(5-cyclopropyloxypyridin-2-yl)carbamoyl]-4-fluorophenyl]-2-methyl-1,3-thiazole-5-carboxamide], the IC50 in experiment [1] was above 1000 nM; in experiment [2], above 1000 nM; in experiment [3] it was above 1000 nM; in experiment [4], below 100 nM; in experiment [5], below 100 nM.

As for `Cc1ncc(C(=O)Nc2cc(C(=O)Nc3cc(CC4CC4)ncn3)c(F)cc2C)s1` [Example 50, N-(5-((6-(cyclopropylmethyl)pyrimidin-4-yl)carbamoyl)-4-fluoro-2-methylphenyl)-2-methylthiazole-5-carboxamide], the IC50 in experiment [1] was 100 to 1000 nM; in experiment [2], 100 to 1000 nM; in experiment [3] it was 100 to 1000 nM; in experiment [4], below 100 nM; in experiment [5], below 100 nM.

Regarding `Cc1ncc(C(=O)Nc2cc(C(=O)NCc3ccccc3F)c(F)cc2C)s1` [Example 51, N-(4-fluoro-5-((2-fluorobenzyl)carbamoyl)-2-methylphenyl)-2-methylthiazole-5-carboxamide], the concentration for half-maximal inhibition (IC50) is above 1000 nM in experiment [1]; above 1000 nM in experiment [2]; above 1000 nM in experiment [3]; 100 to 1000 nM in experiment [4]; below 100 nM in experiment [5].

`Cc1ncc(C(=O)Nc2cc(C(=O)Nc3cccc(CC(F)(F)F)n3)c(F)cc2C)s1` [Example 52, N-[4-fluoro-2-methyl-5-[[6-(2,2,2-trifluoroethyl)pyridin-2-yl]carbamoyl]phenyl]-2-methyl-1,3-thiazole-5-carboxamide]: the IC50 in experiment [1] was above 1000 nM; in experiment [2], above 1000 nM; in experiment [3], above 1000 nM; in experiment [4] it was below 100 nM; in experiment [5], below 100 nM.

On to `Cc1ncc(C(=O)Nc2cc(C(=O)Nc3cnc(OC[C@@H]4CC4(F)F)cn3)c(F)cc2C)s1` [Example 58, N-[5-[[5-[[(1S)-2,2-difluorocyclopropyl]methoxy]pyrazin-2-yl]carbamoyl]-4-fluoro-2-methylphenyl]-2-methyl-1,3-thiazole-5-carboxamide], for which the concentration for half-maximal inhibition (IC50) in experiment [1] was above 1000 nM; in experiment [2], above 1000 nM; in experiment [3] it was above 1000 nM; in experiment [4], below 100 nM; in experiment [5], below 100 nM.

For `Cc1ncc(C(=O)Nc2cc(C(=O)Nc3ccn(CC4CC4)n3)c(F)cc2C)s1` [Example 70, N-[5-[[1-(cyclopropylmethyl)pyrazol-3-yl]carbamoyl]-4-fluoro-2-methylphenyl]-2-methyl-1,3-thiazole-5-carboxamide], the IC50 in experiment [1] is above 1000 nM; in experiment [2], above 1000 nM; in experiment [3], above 1000 nM; in experiment [4] it was below 100 nM; in experiment [5] it was below 100 nM.

Turning to `Cc1ncc(C(=O)Nc2cc(C(=O)Nc3cnc(N4CC(O)C4)cn3)c(F)cc2C)s1` [Example 71, N-(4-fluoro-5-((5-(3-hydroxyazetidin-1-yl)pyrazin-2-yl)carbamoyl)-2-methylphenyl)-2-methylthiazole-5-carboxamide], the IC50 was above 1000 nM in experiment [1]; above 1000 nM in experiment [2]; above 1000 nM in experiment [3]; below 100 nM in experiment [4]; below 100 nM in experiment [5].

As to `Cc1ncc(C(=O)Nc2cc(C(=O)Nc3cnc(N4CC[C@@H](O)C4)cn3)c(F)cc2C)s1` [Example 72, (R)—N-(4-fluoro-5-((5-(3-hydroxypyrrolidin-1-yl)pyrazin-2-yl)carbamoyl)-2-methylphenyl)-2-methylthiazole-5-carboxamide], the IC50 in experiment [1] was above 1000 nM; in experiment [2], above 1000 nM; in experiment [3], above 1000 nM; in experiment [4] it was below 100 nM; in experiment [5], below 100 nM.

For `COC1CN(c2cnc(NC(=O)c3cc(NC(=O)c4cnc(C)s4)c(C)cc3F)cn2)C1` [Example 73, N-(4-fluoro-5-((5-(3-methoxyazetidin-1-yl)pyrazin-2-yl)carbamoyl)-2-methylphenyl)-2-methylthiazole-5-carboxamide], the half-maximal inhibitory concentration (IC50) in experiment [1] was above 1000 nM; in experiment [2], above 1000 nM; in experiment [3], above 1000 nM; in experiment [4], below 100 nM; in experiment [5], below 100 nM.

Turning to `CO[C@@H]1CCN(c2cnc(NC(=O)c3cc(NC(=O)c4cnc(C)s4)c(C)cc3F)cn2)C1` [Example 74, (R)—N-(4-fluoro-5-((5-(3-methoxypyrrolidin-1-yl)pyrazin-2-yl)carbamoyl)-2-methylphenyl)-2-methylthiazole-5-carboxamide], the IC50 in experiment [1] is above 1000 nM; in experiment [2], above 1000 nM; in experiment [3], above 1000 nM; in experiment [4], below 100 nM; in experiment [5], below 100 nM.

`Cc1ncc(C(=O)Nc2cc(C(=O)Nc3cnc(N4CCC[C@H]4C)cn3)c(F)cc2C)s1` [Example 84, N-(5-{N-5-[(R)-2-methyl-1-pyrrolidinyl]-2-pyrazinylcarbamoyl}-4-fluoro-2-tolyl)-2-methyl-1,3-thiazole-5-carboxamide]: the IC50 in experiment [1] is above 1000 nM; in experiment [2] it was above 1000 nM; in experiment [3], above 1000 nM; in experiment [4], below 100 nM; in experiment [5] it was below 100 nM.

With `Cc1ncc(C(=O)Nc2cc(C(=O)Nc3cnc(N4CCCC4)cn3)c(F)cc2C)s1` [Example 85, N-{5-[N-5-(1-pyrrolidinyl)-2-pyrazinylcarbamoyl]-4-fluoro-2-tolyl}-2-methyl-1,3-thiazole-5-carboxamide], the IC50 in experiment [1] was above 1000 nM; in experiment [2], above 1000 nM; in experiment [3] it was above 1000 nM; in experiment [4], below 100 nM; in experiment [5], below 100 nM.

Turning to `Cc1ncc(C(=O)Nc2cc(C(=O)Nc3cnc(OCC4CC4)cn3)c(F)cc2C)s1` [Example 88, N-{5-[N-5-(cyclopropylmethoxy)-2-pyrazinylcarbamoyl]-4-fluoro-2-tolyl}-2-methyl-1,3-thiazole-5-carboxamide], the IC50 is above 1000 nM in experiment [1]; above 1000 nM in experiment [2]; above 1000 nM in experiment [3]; 100 to 1000 nM in experiment [4]; 100 to 1000 nM in experiment [5].

Consider `Cc1cc(F)c(C(=O)Nc2cncc(C(F)(F)F)c2)cc1NC(=O)c1cnc(N)s1` [Example 249, 2-Amino-N-[4-fluoro-2-methyl-5-[[5-(trifluoromethyl)pyridin-3-yl]carbamoyl]phenyl]-1,3-thiazole-5-carboxamide], for which the IC50 in experiment [2], in experiment [4] and in experiment [5] was below 100 nM throughout.

In the case of `Cc1cc(F)c(C(=O)Nc2cccnc2C)cc1NC(=O)c1cnc(N)s1` [Example 250, 2-Amino-N-[4-fluoro-2-methyl-5-[(2-methylpyridin-3-yl)carbamoyl]phenyl]-1,3-thiazole-5-carboxamide], the results for the IC50 in experiment [2], in experiment [4] and in experiment [5] were above 1000 nM, 100 to 1000 nM and 100 to 1000 nM, respectively.
